{"source": "patent EP0401715B1", "about": "“Aminoketone compounds” (priority 1989, dated 1990)", "molecular_target": "T1, cholinesterase (Rattus norvegicus, UniProt P37136)", "T1 construct": "The S₁ fraction of a cerebral cortex homogenate from male Wistar rats was used as the cholinesterase source; from tissue; host or cells: S1 fraction of cerebral cortex homogenate, male Wistar rats", "T1 sequence (P37136 32-614)": "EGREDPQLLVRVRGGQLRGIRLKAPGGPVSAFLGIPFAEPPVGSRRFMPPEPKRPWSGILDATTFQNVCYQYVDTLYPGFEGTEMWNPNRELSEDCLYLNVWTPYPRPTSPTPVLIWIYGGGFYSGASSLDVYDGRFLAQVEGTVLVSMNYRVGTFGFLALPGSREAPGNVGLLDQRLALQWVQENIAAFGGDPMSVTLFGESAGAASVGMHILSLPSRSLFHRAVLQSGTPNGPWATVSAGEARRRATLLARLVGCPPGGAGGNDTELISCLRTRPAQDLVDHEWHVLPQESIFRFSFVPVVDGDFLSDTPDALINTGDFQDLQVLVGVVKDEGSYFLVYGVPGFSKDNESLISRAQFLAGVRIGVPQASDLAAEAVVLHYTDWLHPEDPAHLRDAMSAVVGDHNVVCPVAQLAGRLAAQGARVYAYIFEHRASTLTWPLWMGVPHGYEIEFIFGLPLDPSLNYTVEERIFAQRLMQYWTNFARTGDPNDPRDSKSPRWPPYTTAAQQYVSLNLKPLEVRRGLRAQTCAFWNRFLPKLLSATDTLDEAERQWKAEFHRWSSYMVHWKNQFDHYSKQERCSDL", "assay": "Anticholinesterase activity using (acetyl-[³H])-acetylcholine as substrate", "assay_type": "biochemical, male Wistar rats", "protocol": "The anticholinesterase activity of the compound of the invention was evaluated using (acetyl-[³H])-acetylcholine. The S₁ fraction of a cerebral cortex homogenate from male Wistar rats was used as the cholinesterase source, (acetyl-[³H])-acetylcholine as the substrate and the test compound of the invention as the test substance. The incubation was carried out for 30 minutes and after the reaction was terminated, the system was shaken with a toluene scintillator to thereby transfer [³H]-acetic acid into the toluene layer. The radioactivity in the toluene layer was then measured with a liquid scintillation counter to estimate the anticholinesterase activity of the test compound.", "note": "Structures can show the parent of a compound that is named as a salt. Where two headings read alike, the source gives them in different places."}
{"smiles": "CCN(CCCCCC(=O)c1ccc(N2CCCC2)cc1)Cc1ccccc1", "note": "[Example 4-2, N-Ethyl-N-(phenylmethyl)-N-[6-(4-pyrrolidinophenyl)-6-oxohexyl]amine fumarate]", "values": [{"measurement": "IC50", "result": 310, "unit": "nM"}]}
{"smiles": "CCN(CCCCCC(=O)c1ccc(N2CCCC2)cc1)Cc1ccccc1OC", "note": "[Example 4-3, N-Ethyl-N-[(2-methoxyphenyl)methyl]-N-[6-(4-pyrrolidinophenyl)-6-oxohexyl]amine fumarate]", "values": [{"measurement": "IC50", "setting": "S₁ fraction of a cerebral cortex homogenate from male Wistar rats as cholinesterase source, incubation 30 minutes, read-out: Anticholinesterase activity, IC₅₀", "result": 50, "unit": "nM"}]}
